Assay results taken from US20050113427A1, “Use of peroxynirite scavengers or peroxynitrite formation inhibitors that do not diminish nitric oxide synthesis or activity to reverse or prevent premature vascular senescence” (ArgiNOx, Inc., priority 2001, published 2005).

What was measured:
[1] = tested on: Human umbilical vein endothelial cells (HUVEC); assay: SA β-galactosidase staining of HUVEC grown on glycated collagen (premature senescence); type: cell-based; conditions: for reversal of premature senescence in HUVECs on GC (SA β-galactosidase staining, FIG. 1): HUVECs on GC 3 days, then compound every 12 hours until staining on day 5, GC dilutions 1:3, 1:6, 1:10 in native collagen; for development of premature senescence (SA β-galactosidase staining) in HUVECs grown on GC: ebselen 1 μmol/L, NOHA 0.1 mmol/L, MnTBAP 2.5 μmol/L, applied day 1, 2 hours after plating, added daily, studied day 3
Experimental: Detection of SA-β-galactosidase was carried out utilizing the histochemical staining method of Dimitri et al, Proc. Natl. Acad. Sci. USA 92, 9363-9367 as modified by Van der Loo, B., et al, Exp. Cell Res. 241, 309-315 (1998). SA β-galactosidase is a known senescence marker. […] This phenomenon occurred in 12 week and 21 week-old diabetic rats, but was undetectable in age-matched Zucker lean rats (0/24 branches examined).
Human umbilical vein endothelial cells (HUVEC) after four passages were plated on glycated collagen with or without the addition of 0.1 mM ebselen. Application was made on day 1, 2 hours after plating. The extent of SA β-galactosidase staining was evaluated on days 3 and 5 of culture on a glycated or native collagen matrix. In addition, to study the reversibility process, HUVEC were plated on glycated collagen for three days (time sufficient to induce premature senescence), and ebselen was added every 12 hours, starting on day 3, and the cells were examined on day 5.
These concentrations of compounds were chosen based on preliminary experiments testing effects of a range of concentrations for each compound and selecting the lowest one which was efficient but non-cytotoxic. Ebselen, NOHA, and MnTBAP were each applied on day 1, 2 hours after HUVEC plating, added daily, and cells were studied on day 3. HUVECs grown on both glycated and native matrix were examined for the extent of SA β-galactosidase staining. […] In addition, to test for reversibility of senescence by ebselen, NOHA, or MnTBAP, HUVECs were plated on GC for 3 days (time sufficient to induce premature senescence) and thereafter ebselen (ebs), NOHA, or MnTBAP were added every 12 hours, until SA β-galactosidase staining on day 5. […] Dashed lines show the data obtained in HUVECs cultured on native collagen (NC).

diabetes mellitus = assay: Patient with poorly controlled diabetes mellitus treated with ebselen (Example II); type: in vivo, human; conditions: ebselen 1-20 mg/kg thrice/day, 6 months later
Experimental: A patient with type I (alternatively, a patient with type 2) diabetes mellitus, past medical history of myocardial infarction, peripheral vascular disease, hypertension, proteinuria and non-healing foot ulcer, is receiving insulin, but experiences poor therapeutic response. Patient's fasting blood glucose level is 200 mg/dl. Additional laboratory findings include elevated Hgb Alc level (8.5%) as well as one of the following signs of AGE accumulation: elevated level of pentosidine (2.3 pmol/mg) or elevated level of Amadori serum albumin (41 U/ml). (In some cases, renal biopsy will be performed, which will directly disclose the deposition of AGE in the renal parenchyma and increased proportion of SA-beta-galactosidase-stained endothelial cells). […] Similar results are obtained in similar patients who are administered other ebselen-class compounds.

[2] = tested on: endothelial cells from saphenous vein; assay: Artificial heart valve seeded with endothelial cells cultured with ebselen, implanted in patient (Example V); type: in vivo, human; conditions: cells cultured with 10-100 μg/ml at 35° C. for 2-3 weeks; versus patients not receiving ebselen
Experimental: A person with a defective heart valve is being prepared for a surgical replacement of the valve with a prosthetic device. A saphenous vein is obtained to harvest endothelial cells for expansion and seeding onto the surface of a artificial valve. Endothelial cells are isolated from the graft and cultured in a medium containing ebselen or ebselen-class compound at a concentration of 10-100 μg/ml at 35° C. for 2-3 weeks and cells are seeded onto the valve in the continuous presence of the same concentration of ebselen or ebselen-class compound. Thus prepared, the artificial valve is implanted.

[3] = tested on: endothelial cells from saphenous vein; assay: Artificial vascular graft seeded with endothelial cells cultured with ebselen, implanted in patient (Example VI); type: in vivo, human; conditions: cells cultured with 10-100 μg/ml at 35° C. for 2-3 weeks; versus patients not receiving ebselen
Experimental: A person with peripheral vascular disease is undergoing an elective femoral-to-popliteal bypass surgery utilizing an artificial vascular graft. A saphenous vein is obtained to harvest endothelial cells for expansion and seed onto the surface of a graft. Endothelial cells are isolated from the graft and cultured in a medium containing ebselen or ebselen-class compound at a concentration of 10-100 μg/ml at 35° C. for 2-3 weeks, and cells are seeded onto the graft in the continuous presence of the same concentration of ebselen or ebselen-class compound. Thus prepared, the vascular graft is implanted.

Alzheimer's disease = assay: Patient with Alzheimer's disease treated with ebselen or ebselen-class compounds (Example III); type: in vivo, human; conditions: 1-20 mg/kg thrice/day alone or with antioxidant agents and vitamins; two years later
Experimental: A person with no known medical conditions has been experiencing a sustained loss of short-term memory for the past three years. Their CBC, electrolytes and other plasma metabolites are within normal range. There is no vitamin deficiency, no abnormalities in liver function tests, and no previous history of cerebro-vascular accidents. […] Based on these findings the patient is diagnosed with Alzheimer's disease. Therapy with ebselen or other ebselen-class compounds is initiated at doses of 1-20 mg/kg thrice/day alone or in combination with antioxidant agents and vitamins (e.g., ascorbate, alpha-tocopherol, vitamin B6, vitamin B12, folate (folic acid), carotenoids, coenzyme Q10, phytoestrogens (including isoflavonoids), butylated hydroxytoluene (BHT), butylated hydroxyanisole (BHA) and n-3 polyunsaturated fatty acids (PUFA)).

end stage renal disease = assay: Patient with end stage renal disease on chronic hemodialysis treated with ebselen (Example I); type: in vivo, human; conditions: ebselen 1-20 mg/kg thrice/day, 6 months later
From the text: (In some cases, renal biopsy will be performed, which will directly disclose the deposition of AGE in the renal parenchyma and increased proportion of SA-beta-galactosidase-stained endothelial cells). […] In addition, the patient has their arteriovenous fistula revised 3 times due to clotting and stenosis. The patient is also complaining of a non-healing foot ulcer and intermittent claudication, both signs of peripheral vascular disease. […] Similar results are obtained in similar patients who are administered other ebselen-class compounds.

**Q.** How did the “reversal of premature senescence in HUVECs on GC (SA β-galactosidase staining, FIG. 1)” value (“reversal … (SA β-galactosidase staining, FIG. 1)” for short) [1] turn out when `N=C(N)NCCC[C@H](N)C(=O)O` [L-arginine] was run?
**A.** The value was “reversed senescence at low but not high concentrations of GC”.

**Q.** Which “reversal … (SA β-galactosidase staining, FIG. 1)” value [1] does the source give for `O=C(O)c1ccc(/C2=C3\C=CC(=N3)/C(c3ccc(C(=O)O)cc3)=c3/cc/c4[n]3[Mn]([Cl])[n]3c2ccc3/C(c2ccc(C(=O)O)cc2)=C2/C=CC(=N2)\C=4c2ccc(C(=O)O)cc2)cc1` [MnTBAP, [5,10,15,20-tetrakis(4-carboxyphenyl)-porphyrinato]manganese (III) chloride] here?
**A.** The value was “able to reverse premature senescence at all dilutions of GC”.

**Q.** What about the “development of premature senescence (SA β-galactosidase staining) in HUVECs grown on GC” value (from here on “development of premature senescence … on GC”) [1] of the same compound?
**A.** Its value is “completely abolished the development of premature senescence”.

**Q.** With `N=C(NO)NCCC[C@H](N)C(=O)O` [NOHA, N^ω-hydroxyl-L-arginine] as the compound, how does the “reversal … (SA β-galactosidase staining, FIG. 1)” value [1] read?
**A.** The value was “able to reverse premature senescence at all dilutions of GC”.

**Q.** And the “development of premature senescence … on GC” value [1]?
**A.** Its value is “completely abolished the development of premature senescence”.

**Q.** `O=c1c2ccccc2[se]n1-c1ccccc1` [ebselen, 2-phenyl-1,2-benzisoselenazol-3(2H)-one] was tested. Which clinical outcome (diabetes mellitus) did it give?
**A.** Its clinical outcome is “significant subjective improvement of coronary symptoms”.

**Q.** And the pentosidine after treatment (diabetes mellitus; before 2.3 pmol/mg)?
**A.** The pentosidine after treatment was at most 1.7 pmol/mg.

**Q.** And the “Amadori serum albumin after treatment” value (diabetes mellitus; before 41 U/ml)?
**A.** The value was at most 30 U/ml.

**Q.** What about the “development of premature senescence (SA β-galactosidase staining) in HUVEC grown on glycated collagen” value ([1]; 0.1 mM ebselen applied day 1, 2 hours after plating, evaluated on days 3 and 5) of the same compound?
**A.** Its value is “completely abolished the development of premature senescence”.

**Q.** What about the “reversal of premature senescence in HUVEC on glycated collagen” value ([1]; HUVEC on glycated collagen 3 days, ebselen added every 12 hours from day 3, examined day 5) of the same compound?
**A.** Its value is “able to reverse premature senescence at all dilutions of glycated collagen”.

**Q.** And the “reversal … (SA β-galactosidase staining, FIG. 1)” value [1]?
**A.** Its value is “able to reverse premature senescence at all dilutions of GC”.

**Q.** What about the “development of premature senescence … on GC” value [1] of the same compound?
**A.** Its value is “completely abolished the development of premature senescence”.

**Q.** And the “thrombotic and atheroembolic complications after artificial valve implantation” value [2]?
**A.** Its value is “less thrombotic and atheroembolic complications”.

**Q.** And the “thrombotic and atheroembolic complications after vascular graft implantation” value [3]?
**A.** Its value is “less thrombotic and atheroembolic complications”.

**Q.** And the “symptoms related to the memory loss” value (Alzheimer's disease)?
**A.** The value was “no deterioration and a partial improvement of symptoms related to the memory loss”.

**Q.** And the clinical outcome (end stage renal disease)?
**A.** The clinical outcome was “significant subjective improvement of coronary symptoms, renal disease, healing of foot ulcer, normalization of blood pressure”.

**Q.** And the pentosidine after treatment (end stage renal disease)?
**A.** The pentosidine after treatment was 1.7 pmol/mg.

**Q.** And the “Amodori serum albumin after treatment” value (end stage renal disease; before 40 U/ml)?
**A.** Its value is 30 U/ml.
